According to US20240254138A1, “TRICYCLIC PYRIMIDINES AS CYCLIN-DEPENDENT KINASE 7 (CDK7) INHIBITORS” (JANSSEN PHARMACEUTICA NV, priority 2021, published 2024):
Where two headings read alike, the source gives them in different places.

How the values were obtained:
[1] = test system: RNA Polymerase II Serine 5 phosphorylation (Rpb1 CTD, downstream substrate of CDK7) in A549 cells; assay: Imaging-based cellular RNA PolII Ser5 phosphorylation assay in A549 cells; assay type: cell-based, human; details: wild-type CDK7, RNA PolII Ser5 phosphorylation, averaged over all measurements; for IC50: Homo sapiens, A549, A549 cells, read-out: CDK7_A549 Wild-type CDK7 (pIC50) (converted)
In short: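 IC50 derived by fitting % control (DMSO high, 10 μM reference low) against concentration, with Hill slope. Readout: high-content imaging of phospho-Ser5 Rpb1 CTD antibody staining in fixed, permeabilized A549 cells exposed to compound 3 h after 20 h culture in 1% FBS DMEM.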

[2] = test system: RNA Polymerase II Serine 5 phosphorylation in A549 cells overexpressing CDK7-mutant (C312S); assay: Imaging-based cellular RNA PolII Ser5 phosphorylation assay in A549 cells overexpressing CDK7-mutant (C312S); assay type: cell-based, human; details: RNA PolII Ser5 phosphorylation, averaged over all measurements; for IC50: Homo sapiens, A549, A549 cells overexpressing CDK7-mutant (C312S), read-out: CDK7_A549 mutant hCDK7(pIC50) (converted)
In short: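 Readout was automated imaging of anti-phospho-Ser5 Rpb1 CTD immunofluorescence, with IC50 fitted to % control versus concentration. Cells were A549 stably overexpressing non-covalently targetable CDK7 C312S alongside wild-type, exposed to compound 3 h at 37 °C. DMSO and 10 μM reference compound served as controls.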

[3] = molecular target: CDK7/cyclinH/MAT1 trimeric complex (Homo sapiens, UniProt P50613); assay: In vitro CDK7 assay, potency of irreversible covalent inhibitors (kinact/KI), coupled PK/LDH ADP readout at 340 nm
CDK7/cyclinH/MAT1 trimeric complex, sequence (P50613 whole entry): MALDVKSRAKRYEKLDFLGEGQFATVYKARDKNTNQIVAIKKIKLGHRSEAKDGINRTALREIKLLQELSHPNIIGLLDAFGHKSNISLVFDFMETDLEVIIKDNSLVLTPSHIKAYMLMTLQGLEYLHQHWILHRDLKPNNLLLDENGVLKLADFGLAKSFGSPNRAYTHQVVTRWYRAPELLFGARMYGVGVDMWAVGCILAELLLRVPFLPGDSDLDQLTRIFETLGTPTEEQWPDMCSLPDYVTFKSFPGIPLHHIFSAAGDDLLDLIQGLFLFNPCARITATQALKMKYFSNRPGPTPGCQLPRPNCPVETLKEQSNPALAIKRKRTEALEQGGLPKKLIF
CDK7/cyclinH/MAT1 trimeric complex, sequence (P51946 whole entry partner): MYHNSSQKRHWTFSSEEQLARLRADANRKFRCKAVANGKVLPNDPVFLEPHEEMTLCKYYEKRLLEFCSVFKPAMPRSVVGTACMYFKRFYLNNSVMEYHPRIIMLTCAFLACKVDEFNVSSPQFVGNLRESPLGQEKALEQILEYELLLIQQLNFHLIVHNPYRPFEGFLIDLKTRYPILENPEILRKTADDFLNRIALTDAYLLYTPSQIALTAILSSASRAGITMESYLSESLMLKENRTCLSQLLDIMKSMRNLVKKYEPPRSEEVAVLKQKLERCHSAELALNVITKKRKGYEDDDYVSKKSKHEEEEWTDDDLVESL
CDK7/cyclinH/MAT1 trimeric complex, sequence (P51948 whole entry partner): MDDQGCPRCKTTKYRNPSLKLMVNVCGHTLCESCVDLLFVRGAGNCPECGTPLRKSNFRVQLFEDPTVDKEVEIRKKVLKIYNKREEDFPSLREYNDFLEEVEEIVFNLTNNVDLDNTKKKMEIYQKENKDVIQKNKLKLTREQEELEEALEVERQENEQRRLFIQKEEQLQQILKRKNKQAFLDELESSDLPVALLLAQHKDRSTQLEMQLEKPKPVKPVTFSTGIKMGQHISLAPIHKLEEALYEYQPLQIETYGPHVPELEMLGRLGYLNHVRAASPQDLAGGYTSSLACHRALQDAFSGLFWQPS

[4] = CDK7 (20 nM enz.) (KI, μM), 20 nM enzyme
[5] = read-out: CDK7 (20 nM enz.) (kinact, s^−1), 20 nM enzyme
[6] = read-out: CDK7 (20 nM enz.) (kinact/KI, M^−1*s^−1), 20 nM enzyme
[7] = CDK7 (KI(μM)), […], 1 mM ATP, room temperature, averaged values over all measurements
[8] = read-out: CDK7 (kinact, s^−1), kinact = maximal rate of inactivation, 1 mM ATP, room temperature, averaged values over all measurements
[9] = read-out: CDK7 (kinact/KI, M^−1*s^−1), potency of irreversible covalent inhibitors, 1 mM ATP, room temperature, averaged values over all measurements
[10] = read-out: CDK7 (20 nM enz.) (kobs/[I], M^−1*s^−1), 20 nM enzyme

Compound | IC50 [1] | IC50 [2] | Ki [3, 4] | kinact [3, 5] | kinact/KI [3, 6] | kinact/KI [3, 10] | further results
C=CC(=O)N1CC[C@H](N2CC(c3cc4c(c(C)n3)OCc3c(C5CCOCC5)ccnc3N4)C2)[C@H](F)C1 (mixture of isomers) [Compound 236] | 162 nM | 7410 nM | 0.084 µM | 3.05e-05 s⁻¹ | 362 M⁻¹ s⁻¹ |  | 
C=CC(=O)N1CC[C@H](N2CC(c3cc4c(c(C)n3)OCc3c(C5CCOCC5)ccnc3N4)C2)[C@@H](F)C1 (mixture of isomers) [Compound 242] | 316 nM | > 10000 nM | 0.129 µM | 2.7e-05 s⁻¹ | 209 M⁻¹ s⁻¹ |  | 
CC#CC(=O)N1CCC(N2CC(c3cc(C#N)c4c(c3)Nc3nccc(N5CCOCC5)c3[C@@H](C)O4)C2)C1 (mixture of isomers) [Compound 493] | 120 nM | 5890 nM |  |  | 397 M⁻¹ s⁻¹ |  | 
CC#CC(=O)N1CCC(N2CC(c3cc(C#N)c4c(c3)Nc3nccc(N5CCOCC5)c3[C@H](C)O4)C2)C1 (mixture of isomers) [Compound 494] | 4070 nM | > 10000 nM |  |  | 3.14 M⁻¹ s⁻¹ |  | 
C=CC(=O)N1CC[C@H]2CN(c3ccc4c(c3)Nc3nccc(N5CCOCC5)c3CO4)CC[C@@H]21 (racemic) [Compound 48] | 1620 nM | > 10000 nM |  |  |  |  | Ki [3, 7]: 0.325 µM; kinact [3, 8]: 4.98e-05 s⁻¹; kinact/KI [3, 9]: 153 M⁻¹ s⁻¹
C#CCCN(C)C/C=C/C(=O)N1CC(N2CCC(c3ccc4c(c3)Nc3nccc(N5CCOCC5)c3C(C)O4)CC2)C1 (racemic) [Compound 143] | 123 nM | > 10000 nM | 0.0404 µM | 6.96e-05 s⁻¹ | 1720 M⁻¹ s⁻¹ |  | 
C=CC(=O)N1CC(N2CC[C@@H](c3ccc4c(c3)Nc3nccc(N5CCOCC5)c3CO4)[C@H](O)C2)C1 (racemic) [Compound 216] | 550 nM | > 10000 nM | 0.472 µM | 6.66e-05 s⁻¹ | 141 M⁻¹ s⁻¹ |  | 
C=CC(=O)N1CC[C@H]2CN(c3ccc4c(c3)Nc3nccc(N5CCOCC5)c3CO4)CC[C@H]21 (relative stereo) [Compound 27] | 3720 nM | > 10000 nM |  |  |  |  | kinact/KI [3, 9]: 28.7 M⁻¹ s⁻¹
C=CC(=O)N1CC(N2CC[C@H](c3ccc4c(c3)Nc3nccc(N5CCOCC5)c3CO4)C(C)(C)C2)C1 (single isomer, unassigned) [Compound 67] | 214 nM | > 10000 nM | 0.0862 µM | 6.48e-05 s⁻¹ | 752 M⁻¹ s⁻¹ |  | 
C=CC(=O)N1CC(N2CC[C@@H](c3ccc4c(c3)Nc3nccc(N5CCOCC5)c3CO4)C(C)(C)C2)C1 (single isomer, unassigned) [Compound 69] | 234 nM | > 10000 nM |  |  |  | 529 M⁻¹ s⁻¹ | 
C=CC(=O)N1CC(N2CC[C@@H](c3ccc4c(c3)Nc3nccc(N5CCOCC5)c3CO4)C[C@@H]2C)C1 (single isomer, unassigned) [Compound 74] | 77.6 nM | > 10000 nM |  |  |  | 1040 M⁻¹ s⁻¹ | 
C=CC(=O)N1CC(N2CC[C@H](c3ccc4c(c3)Nc3nccc(N5CCOCC5)c3CO4)C[C@H]2C)C1 (single isomer, unassigned) [Compound 76] | 79.4 nM | > 10000 nM |  |  |  | 1650 M⁻¹ s⁻¹ | 
C=CC(=O)N1CC(N2CCC(c3ccc4c(c3)Nc3nccc(N5CCOCC5)c3[C@@H](C)O4)CC2)C1 (single isomer, unassigned) [Compound 89] | 60.3 nM | > 10000 nM |  |  |  | 923 M⁻¹ s⁻¹ | 
C=CC(=O)N1CC(N2CCC[C@H](c3ccc4c(c3)Nc3nccc(N5CCOCC5)c3CO4)C2)C1 (single isomer, unassigned) [Compound 93] | 447 nM | > 10000 nM | 0.0862 µM | 5.07e-05 s⁻¹ | 589 M⁻¹ s⁻¹ |  | 
C=CC(=O)N1CC(N2CCC(c3ccc4c(c3)Nc3nccc(C5CCOCC5)c3[C@@H](C)O4)CC2)C1 (single isomer, unassigned) [Compound 97] | 66.1 nM | > 10000 nM | 0.0627 µM | 0.00011 s⁻¹ | 1760 M⁻¹ s⁻¹ | 1510 M⁻¹ s⁻¹ | 
C=CC(=O)N1CC(N2CCC(c3ccc4c(c3)Nc3nccc(C5CCOCC5)c3[C@H](C)O4)CC2)C1 (single isomer, unassigned) [Compound 98] | 1260 nM | > 10000 nM | 0.39 µM | 5.61e-05 s⁻¹ | 144 M⁻¹ s⁻¹ |  | 
C=CC(=O)N1CC(N2CCC(c3ccc4c(c3)Nc3nccc(C5CCOCC5)c3[C@H](C)O4)CC2)C1 (single isomer, unassigned) [Compound 104] | 1170 nM | > 10000 nM | 0.431 µM | 4.85e-05 s⁻¹ | 112 M⁻¹ s⁻¹ |  | 
C=CC(=O)N1CC(N2CC[C@H](c3ccc4c(c3)Nc3nccc(N5CCOCC5)c3CO4)[C@@H](F)C2)C1 (single isomer, unassigned) [Compound 109] |  |  |  |  |  |  | CDK7_A549 Wild-type CDK7 (pIC50) ([1]; A549 cells): 5.55; CDK7_A549 mutant hCDK7(pIC50) ([2]; A549 cells overexpressing CDK7-mutant (C312S)): <5; CDK7 (20 nM enz.) (kinact, s^−1) ([3]; 20 nM enzyme): 1.425e-05 s⁻¹; CDK7 (20 nM enz.) (kinact/KI, M^−1*s^−1) ([3]; 20 nM enzyme): 5.9 M⁻¹ s⁻¹; Ki ([3]; read-out: CDK7 (20 nM enz.) (KI), 20 nM enzyme): 2.42 µM
C=CC(=O)N1CC(N2CCC[C@@H](c3ccc4c(c3)Nc3nccc(N5CCOCC5)c3CO4)C2)C1 (single isomer, unassigned) [Compound 145] | 977 nM | > 10000 nM | 0.872 µM | 7.9e-05 s⁻¹ | 90.6 M⁻¹ s⁻¹ |  | 
C=CC(=O)N1CCC(N2CC(c3cc(F)c4c(c3)Nc3nccc(C5CCOCC5)c3[C@@H](C)O4)C2)CC1 (single isomer, unassigned) [Compound 153] | 18.6 nM | 5750 nM | 0.0288 µM | 3.67e-05 s⁻¹ | 1280 M⁻¹ s⁻¹ |  | 

Further lines, with some results ahead:

IC50 [1] | IC50 [2] | Ki [3, 4] | kinact [3, 5] | kinact/KI [3, 6] | kinact/KI [3, 10] | Compound | further results
93.3 nM | > 10000 nM | 0.0443 µM | 4.45e-05 s⁻¹ | 1000 M⁻¹ s⁻¹ |  | C=CC(=O)N1CC[C@@H](N2CC(c3cc(C)c4c(c3)Nc3nccc(C5CCOCC5)c3CO4)C2)[C@H](F)C1 (racemic) [Compound 206] | 
398 nM | > 10000 nM |  |  |  |  | C=CC(=O)N1CC(N2CCC(c3ccc4c(c3)Nc3nccc(N5CCOC[C@@H]5C)c3CO4)CC2)C1 (single isomer, unassigned) [Compound 32] | Ki [3, 7]: 0.177 µM; kinact [3, 8]: 0.000102 s⁻¹; kinact/KI [3, 9]: 578 M⁻¹ s⁻¹
158 nM | > 10000 nM | 0.0619 µM | 6.91e-05 s⁻¹ | 1120 M⁻¹ s⁻¹ |  | C=CC(=O)N1CC[C@H](N2CCC(c3ccc4c(c3)Nc3nccc(N5CCOCC5)c3CO4)CC2)C1 (single isomer, unassigned) [Compound 38] | kinact/KI [3, 9]: 744 M⁻¹ s⁻¹
< 9.77 nM | 832 nM |  |  |  | 1570 M⁻¹ s⁻¹ | C=CC(=O)N1CC[C@@H](N2CCC(c3ccc4c(c3)Nc3nccc(N5CCOCC5)c3CO4)CC2)C1 (single isomer, unassigned) [Compound 44] | kinact/KI [3, 9]: 602 M⁻¹ s⁻¹
126 nM | > 10000 nM | 0.0777 µM | 4.72e-05 s⁻¹ | 622 M⁻¹ s⁻¹ |  | C=CC(=O)N1CC(N2CCC(c3ccc4c(c3)Nc3nccc(N5CCOCC5)c3[C@H](C)O4)CC2)C1 (single isomer, unassigned) [Compound 92] | 
27.5 nM | 8320 nM |  |  |  | 1420 M⁻¹ s⁻¹ | C=CC(=O)N1CC(N2CCC(c3ccc4c(c3)Nc3nccc(-c5cnn(C)c5)c3[C@@H](C)O4)CC2)C1 (single isomer, unassigned) [Compound 127] | 
38 nM | ~8710 nM |  |  |  | 1530 M⁻¹ s⁻¹ | C=CC(=O)N1CC[C@@H](N2CCC(c3cc(C)c4c(c3)Nc3nccc(-c5cnn(C)c5)c3CO4)CC2)C1 (single isomer, unassigned) [Compound 134] | 
28.8 nM | ~3720 nM |  |  |  | 1330 M⁻¹ s⁻¹ | C=CC(=O)N1CC[C@H](N2CCC(c3cc(C)c4c(c3)Nc3nccc(-c5cnn(C)c5)c3CO4)CC2)C1 (single isomer, unassigned) [Compound 138] | 
50.1 nM | > 10000 nM | 0.0542 µM | 6.66e-05 s⁻¹ | 1230 M⁻¹ s⁻¹ |  | C=CC(=O)N1CC[C@@H](N2CC(c3cc(C)c4c(c3)Nc3nccc(N5CCOCC5)c3CO4)C2)C1 (single isomer, unassigned) [Compound 149] | 
46.8 nM | 6030 nM | 0.0526 µM | 8.76e-05 s⁻¹ | 1660 M⁻¹ s⁻¹ |  | C=CC(=O)N1CC[C@H](N2CC(c3cc(C)c4c(c3)Nc3nccc(N5CCOCC5)c3CO4)C2)C1 (single isomer, unassigned) [Compound 150] | 
